Source: ChEMBL document CHEMBL2311254, “Tuning the preference of thiodigalactoside- and lactosamine-based ligands to galectin-3 over galectin-1” (J Med Chem, 2013)

Columns and labels:
Galectin-3 [1] = target: T1, Galectin-3 (Homo sapiens, UniProt P17931); test: Binding affinity to galectin-3 (unknown origin) by fluorescence polarization assay
Galectin-3 [2] = target: T1, Galectin-3; test: Ratio of Thiodigalactoside Kd to compound Kd for galectin-3 (unknown origin)
Homo sapiens = species: Homo sapiens; test: Selectivity ratio of Kd for galectin-1 (unknown origin) to Kd for galectin-3 (unknown origin)
Galectin-1 [3] = target: T2, Galectin-1 (Homo sapiens, UniProt P09382); test: Ratio of Thiodigalactoside Kd to compound Kd for galectin-1 (unknown origin)
Galectin-1 [4] = target: T2, Galectin-1; test: Binding affinity to galectin-1 (unknown origin) by fluorescence polarization assay
Galectin-3 [5] = target: T1, Galectin-3; test: Binding affinity to galectin-3 (unknown origin)
Galectin-3 [6] = target: T1, Galectin-3; test: Ratio of LacNAc-beta-OMe Kd to compound Kd for galectin-3 (unknown origin)
Galectin-1 [7] = target: T2, Galectin-1; test: Ratio of LacNAc-beta-OMe Kd to compound Kd for galectin-1 (unknown origin)

T1 sequence (P17931 whole entry): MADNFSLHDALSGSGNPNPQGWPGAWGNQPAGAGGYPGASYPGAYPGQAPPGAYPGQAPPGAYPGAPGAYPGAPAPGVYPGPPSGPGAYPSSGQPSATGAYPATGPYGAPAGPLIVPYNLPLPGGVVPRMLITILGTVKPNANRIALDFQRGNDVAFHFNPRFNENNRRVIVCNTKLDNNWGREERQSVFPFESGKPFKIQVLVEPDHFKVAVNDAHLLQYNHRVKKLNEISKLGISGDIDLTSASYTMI
T2 sequence (P09382 whole entry): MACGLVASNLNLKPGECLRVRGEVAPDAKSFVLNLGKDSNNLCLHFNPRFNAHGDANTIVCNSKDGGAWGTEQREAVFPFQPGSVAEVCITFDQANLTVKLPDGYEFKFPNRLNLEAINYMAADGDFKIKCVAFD

Row | SMILES | Kd (Galectin-3 [1]) | Ratio (Galectin-3 [2]) | Selectivity ratio (Homo sapiens) | Ratio (Galectin-1 [3]) | Kd (Galectin-1 [4]) | Activity (Galectin-3 [5]) | Ratio (Galectin-3 [6]) | Ratio (Galectin-1 [7])
1 | OC[C@H]1O[C@@H](S[C@@H]2O[C@H](CO)[C@H](O)[C@H](n3cc(-c4ccc(Oc5ccccc5)cc4)nn3)[C@H]2O)[C@H](O)[C@@H](n2cc(-c3ccc(Oc4ccccc4)cc3)nn2)[C@H]1O | 0.36 µM | 120 | 230 | 0.3 | 84 µM |  |  | 
2 | CO[C@@H]1O[C@H](CO)[C@@H](O[C@@H]2O[C@H](CO)[C@H](O)[C@H](O)[C@H]2O)[C@H](O)[C@H]1NC(C)=O | 69 µM |  | 1 |  |  |  |  | 
3 | OC[C@H]1O[C@@H](S[C@@H]2O[C@H](CO)[C@H](O)[C@H](O)[C@H]2O)[C@H](O)[C@@H](O)[C@H]1O |  |  |  |  |  | 43 µM |  | 
4 | [N-]=[N+]=NCCCO[C@@H]1O[C@H](CO)[C@@H](O[C@@H]2O[C@H](CO)[C@H](O)[C@H](n3cc(-c4ccc(Oc5ccccc5)cc4)nn3)[C@H]2O)[C@H](O)[C@H]1NC(=O)c1ccccc1 | 2.8 µM |  | 2.4 |  | 6.7 µM |  | 25 | 10
5 | OC[C@H]1O[C@@H](S[C@@H]2O[C@H](CO)[C@H](O)[C@H](n3cc(-c4ccccc4)nn3)[C@H]2O)[C@H](O)[C@@H](n2cc(-c3ccccc3)nn2)[C@H]1O | 0.044 µM | 980 | 1 | 490 | 0.049 µM |  |  | 
6 | [N-]=[N+]=NCCCO[C@@H]1O[C@H](CO)[C@@H](O[C@@H]2O[C@H](CO)[C@H](O)[C@H](OCc3ccc(Oc4ccccc4)cc3)[C@H]2O)[C@H](O)[C@H]1N1C(=O)c2ccccc2C1=O | 1.2 µM |  | 230 |  | 280 µM |  | 58 | 0.3
7 | [N-]=[N+]=NCCCO[C@@H]1O[C@H](CO)[C@@H](O[C@@H]2O[C@H](CO)[C@H](O)[C@H](OCc3ccc(Oc4ccccc4)cc3)[C@H]2O)[C@H](O)[C@H]1NC(=O)c1ccccc1 | 8.1 µM |  | 22 |  | 180 µM |  | 8.5 | 0.4
8 | [N-]=[N+]=NCCCO[C@@H]1O[C@H](CO)[C@@H](O[C@@H]2O[C@H](CO)[C@H](O)[C@H](n3cc(-c4ccc(Oc5ccccc5)cc4)nn3)[C@H]2O)[C@H](O)[C@H]1N1C(=O)c2ccccc2C1=O | 2.2 µM |  | 13 |  | 28 µM |  | 31 | 2.5
9 | OC[C@H]1O[C@@H](S[C@@H]2O[C@H](CO)[C@H](O)[C@H](n3cc(-c4cccc(O)c4)nn3)[C@H]2O)[C@H](O)[C@@H](n2cc(-c3cccc(O)c3)nn2)[C@H]1O | 0.022 µM | 1950 | 0.6 | 1850 | 0.013 µM |  |  | 
